In PubChem BioAssay (NCI) one finds GI50 and TGI data, which are given here for seven compounds.

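Following 48 hours of exposure in 96-well plates, responses at five concentrations were used to interpolate endpoints linearly. Abbreviation: GI50, concentration required for 50% inhibition of growth. TGI: concentration producing complete growth inhibition.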

Experiment in all cases: NCI anticancer screen, dose series, 48 h
The subject of test [1] is A498 renal.
Test [2] concerns MDA-MB-435.
The test system of test [3] is SK-MEL-28 melanoma.
Test [4] relates to HCC-2998 colon.
The subject of test [5] is OVCAR-5 ovarian.
Test [6] relates to SNB-19 CNS.
Test [7] concerns PC-3 prostate.
Test [8] has as its system OVCAR-3 ovarian.
Test [9] relates to NCI/ADR-RES ovarian.
For test [10], the system named is SF-295 CNS.

As to `C[C@H]1[C@@H](OCC(CO[C@H]2O[C@@H]3O[C@@]4(C)CC[C@H]5[C@H](C)CC[C@@H]([C@H]2C)[C@@]35OO4)=NOCC(=O)O)OC2O[C@@]3(C)CC[C@H]4[C@H](C)CC[C@@H]1[C@@]24OO3` (some centres undefined), the GI50 in test [1] was 1.76 µM; in test [2], 0.02 µM; in [3], 0.756 µM; in test [4], 1.28 µM; in test [5], 0.497 µM; in [6], 0.613 µM. The GI50 in test [7] is less than 0.01 µM; in test [8], less than 0.0188 µM; in test [9] it was 0.525 µM; in test [10], 0.1 µM. Besides, the TGI amounted to 19.6 µM in test [1]; 5.25 µM in [2]; 20.6 µM in test [3]; 20.8 µM in test [4]; 30.3 µM in test [5]; 18.7 µM in test [6]. Also, the TGI came out at 13.5 µM in [7], 16.4 µM in [9] and 17.3 µM in test [10].
For the compound `C[Se]C(=O)CC1=C2C=C(F)C=CC2/C(=C\c2ccc(S(C)=O)cc2)C1C` (centres undefined), the GI50 in test [1] is 0.0422 µM; in test [2], less than 0.0117 µM; in [3], 0.0343 µM; in test [4], 1.63 µM; in test [5] it was 0.114 µM; in test [6], 0.223 µM. Also, the GI50 was 0.174 µM in test [7], 0.0336 µM in test [8], 0.0776 µM in test [9] and less than 0.0156 µM in test [10]. Further, the TGI in test [1] was found to be 0.192 µM; in test [2], 0.362 µM; in test [3], 0.891 µM; in test [4], 6.79 µM; in [5], 1.49 µM; in [6] it was 0.767 µM. Further, the TGI in test [7] amounted to 1.95 µM; in [8], 0.26 µM; in [9], 3.96 µM; in [10] it was 0.0465 µM.
For the compound `N#Cc1nc(-c2ccccc2)oc1S(=O)(=O)N1CCOCC1`, the GI50 in test [1] is 15.6 µM; in [2] it was 4.03 µM; in test [3], 2.46 µM; in test [4], 17.3 µM; in [5], 13.6 µM; in [6], 28 µM. Also, the GI50 was 5.79 µM in test [7], 2.02 µM in test [8], 14.8 µM in [9] and 38.2 µM in [10]. Moreover, the TGI is 32 µM in test [1]; 15.1 µM in [2]; 6.5 µM in test [3]; 33.7 µM in test [4]; 27.6 µM in [5]; greater than 100 µM in test [6]. Also, the TGI was 20.8 µM in [7], 3.76 µM in test [8], 84.2 µM in test [9] and greater than 100 µM in test [10].
With `CCSC1=CC(=O)c2ccccc2C1=O`, the GI50 in [1] is 16.4 µM; in test [2], 2.69 µM; in test [3], 14.4 µM; in [4] it was 17 µM; in test [5], 16.9 µM; in test [6] it was 16.8 µM. The GI50 in test [7] is 5.84 µM; in test [8], 1.46 µM; in test [9], 2.37 µM; in [10] it was 15.3 µM. Besides, the TGI in test [1] was found to be 41.2 µM; in [2] it was 7.02 µM; in test [3], 28.9 µM; in test [4], 31.8 µM; in test [5] it was 32.5 µM; in test [6], 40.6 µM. Besides, the TGI in test [7] came out at 18.5 µM; in test [8], 2.81 µM; in [9], 7.39 µM; in test [10], 30.7 µM.
Turning to `COC(=O)CCC1=C(C)c2cc3[n-]c(cc4nc(cc5[n-]c(cc1n2)c(CCC(=O)OC)c5C)C=C4C)cc3C.[Cd+2]`, the GI50 is 9.01 µM in test [1]; 2.99 µM in test [2]; 4.69 µM in [3]; 22.2 µM in [4]; 16.8 µM in test [5]; 25.6 µM in test [6]. For the same compound, the GI50 in test [7] is 4.68 µM; in [8], 1.73 µM; in test [9], 39.8 µM; in test [10] it was 17.5 µM. The TGI in [1] was 26.3 µM; in test [2], 19.6 µM; in test [3] it was 21.2 µM; in test [4], greater than 68.1 µM; in test [5], 39.7 µM; in test [6], greater than 100 µM. The TGI in test [7] is 29.3 µM; in [8], 3.81 µM; in test [9], greater than 100 µM; in test [10], 77 µM.
Turning to `C[C@@H]1CC[C@@]2(OC1)O[C@H]1C[C@H]3[C@@H]4CC=C5C[C@@H](O[C@@H]6O[C@H](CO)[C@@H](O[C@@H]7O[C@@H](CO)[C@H](O)[C@H]7O)[C@H](O)[C@H]6O[C@@H]6O[C@@H](C)[C@H](O)[C@@H](O)[C@H]6O)CC[C@]5(C)[C@H]4CC[C@]3(C)[C@H]1[C@@H]2C`, the GI50 was 1.28 µM in [1]; 1.29 µM in test [2]; 1.2 µM in test [3]; 1.71 µM in test [4]; 1.29 µM in test [5]; 1.21 µM in [6]. For the same compound, the GI50 was 1.45 µM in test [7], 1.75 µM in [8], 1.43 µM in [9] and 1.71 µM in test [10]. Moreover, the TGI in test [1] came out at 2.55 µM; in test [2] it was 2.58 µM; in [3], 2.44 µM; in [4], 3.1 µM; in [5], 2.56 µM; in test [6] it was 2.45 µM. In addition, the TGI amounted to 2.81 µM in test [7], 3.12 µM in test [8], 2.78 µM in [9] and 3.11 µM in test [10].
Regarding `O=C(/C=C/c1cccc(Cl)c1)c1ccc(Cl)cc1Cl`, the GI50 was 9.71 µM in test [1]; 8.31 µM in test [2]; 9.69 µM in [3]; 1.14 µM in [4]; 12.2 µM in [5]; 7.42 µM in test [6]. Further, the GI50 in test [7] is 15.2 µM; in [8], 8.54 µM; in test [9] it was 11.3 µM; in [10], 10.1 µM. For the same compound, the TGI turned out to be 27.7 µM in [1]; 16.8 µM in [2]; 26.6 µM in test [3]; 2.52 µM in test [4]; 27.2 µM in [5]; 17.1 µM in test [6]. The TGI in test [7] was greater than 50 µM; in test [8] it was 17.3 µM; in [9], 21.6 µM; in [10], 22.4 µM.
